Assay results as given in patent publication US8178539B2, “Substituted 3,4,6,7-tetrahydro-5H-1,2a,4a,8-tetraazacyclopenta[cd]phenalenes and methods” (3M Innovative Properties Company, priority 2006, dated 2012).
Where a name gives a salt, the structure may show the parent alone.

Compared with CCOCc1nc2c(N)nc3c4c2n1CC(C)(C)N4CCC3 (as salt: hydrochloride) [Example 6, 2-(Ethoxymethyl)-4,4-dimethyl-3,4,6,7-tetrahydro-5H-1,2a,4a,8-tetraazacyclopenta[cd]phenalen-9-amine hydrochloride], CCOCc1nc2c(N)nc3c4c2n1CCN4CCC3 [Example 1, 2-(Ethoxymethyl)-3,4,6,7-tetrahydro-5H-1,2a,4a,8-tetraazacyclopenta[cd]phenalen-9-amine] is lower in melting point: 222 to 227 °C for the first, 172 to 173 °C for the second.

First: COCCc1nc2c(N)nc3c4c2n1CCN4CCC3 [Example 2, 2-(2-Methoxyethyl)-3,4,6,7-tetrahydro-5H-1,2a,4a,8-tetraazacyclopenta[cd]phenalen-9-amine]
Second: CCCc1nc2c(N)nc3c4c2n1CCN4CCC3 [Example 3, 2-Propyl-3,4,6,7-tetrahydro-5H-1,2a,4a,8-tetraazacyclopenta[cd]phenalen-9-amine]
The melting point of the first is lower: 171 to 172 °C for the first, 225 to 230 °C for the second.

CCOCc1nc2c(N)nc3c4c2n1[C@H](C)CN4CCC3 [Example 4, (3R)-2-(Ethoxymethyl)-3-methyl-3,4,6,7-tetrahydro-5H-1,2a,4a,8-tetraazacyclopenta[cd]phenalen-9-amine] and CCOCc1nc2c(N)nc3c4c2n1[C@@H](C)CN4CCC3 [Example 5, (3S)-2-(Ethoxymethyl)-3-methyl-3,4,6,7-tetrahydro-5H-1,2a,4a,8-tetraazacyclopenta[cd]phenalen-9-amine] cannot be ordered by melting point: 164.5 to 166.1 °C for the first, 164.1 to 165.6 °C for the second.
